Laboratory results published in PubChem BioAssay (NCI).
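Five concentrations, 48 hours, 96-well plates. The concentration for full growth arrest is given as TGI.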

Assays:
Experiment in all cases: NCI tumour cell line growth inhibition, 48 h
[1] = tested on: HCT-15 colon
[2] = tested on: HS 578T breast
[3] = tested on: KM12 colon
[4] = tested on: SNB-75 CNS
[5] = tested on: OVCAR-5 ovarian
[6] = tested on: NCI-H23 lung
[7] = tested on: NCI-H460 lung
[8] = tested on: BT-549 breast
[9] = tested on: UACC-257 melanoma
[10] = tested on: SNB-19 CNS
[11] = tested on: ACHN renal
[12] = tested on: EKVX NSCLC
[13] = tested on: MCF7 breast
[14] = tested on: SK-MEL-28 melanoma
[15] = tested on: K-562 leukemia
[16] = tested on: COLO 205 colon
[17] = tested on: SK-MEL-5 melanoma
[18] = tested on: A549 NSCLC
[19] = tested on: UACC-62 melanoma
[20] = tested on: M14 melanoma
[21] = tested on: OVCAR-8 ovarian
[22] = tested on: UO-31 renal
[23] = tested on: SW-620 colon
[24] = tested on: MDA-N
[25] = tested on: HCT-116 colon
[26] = tested on: RPMI-8226 leukemia
[27] = tested on: HOP-62 NSCLC
[28] = tested on: HCC-2998 colon
[29] = tested on: MDA-MB-231 breast
[30] = tested on: PC-3 prostate
[31] = tested on: MALME-3M melanoma
[32] = tested on: NCI-H226 lung
[33] = tested on: T-47D breast
[34] = tested on: RXF 393 renal
[35] = tested on: U251 CNS
[36] = tested on: SK-MEL-2 melanoma
[37] = tested on: TK-10 renal
[38] = tested on: 786-0 renal
[39] = tested on: IGROV1 ovarian
[40] = tested on: HT29 colon
[41] = tested on: HOP-92 NSCLC
[42] = tested on: SR leukemia
[43] = tested on: MOLT-4 leukemia
[44] = tested on: HL-60(TB) leukemia
[45] = tested on: SF-268 CNS
[46] = tested on: SF-539 CNS
[47] = tested on: SK-OV-3 ovarian
[48] = tested on: MDA-MB-435
[49] = tested on: OVCAR-3 ovarian
[50] = tested on: CCRF-CEM leukemia
[51] = tested on: NCI-H522 lung
[52] = tested on: A498 renal
[53] = tested on: SF-295 CNS
[54] = tested on: LOX IMVI melanoma
[55] = tested on: OVCAR-4 ovarian
[56] = tested on: CAKI-1 renal
[57] = tested on: NCI/ADR-RES ovarian
[58] = tested on: DU-145 prostate
[59] = tested on: SN12C renal

SMILES: O=C(CC(=O)n1nc(-c2ccccc2)c(N=Nc2ccccc2C(=O)O)c1-c1ccccc1)Nc1ccc(Cl)cc1
- TGI [1]: > 100 µM
- TGI [2]: > 100 µM
- TGI [3]: > 100 µM
- TGI [4]: 83.1 µM
- TGI [5]: > 100 µM
- TGI [6]: 93.9 µM
- TGI [7]: > 100 µM
- TGI [8]: 93 µM
- TGI [9]: > 100 µM
- TGI [10]: 81.8 µM
- TGI [11]: > 100 µM
- TGI [12]: > 100 µM
- TGI [13]: > 100 µM
- TGI [14]: > 100 µM
- TGI [15]: > 100 µM
- TGI [16]: > 100 µM
- TGI [17]: > 100 µM
- TGI [18]: > 100 µM
- TGI [19]: > 100 µM
- TGI [20]: > 100 µM
- TGI [21]: > 100 µM
- TGI [22]: 47.8 µM
- TGI [23]: > 100 µM
- TGI [24]: > 100 µM
- TGI [25]: > 100 µM
- TGI [26]: > 100 µM
- TGI [27]: > 100 µM
- TGI [28]: > 100 µM
- TGI [29]: > 100 µM
- TGI [30]: > 100 µM
- TGI [31]: > 100 µM
- TGI [32]: > 100 µM
- TGI [33]: > 100 µM
- TGI [34]: 80.8 µM
- TGI [35]: > 100 µM
- TGI [36]: > 100 µM
- TGI [37]: > 100 µM
- TGI [38]: > 100 µM
- TGI [39]: > 100 µM
- TGI [40]: > 100 µM
- TGI [41]: 42.2 µM
- TGI [42]: 42 µM
- TGI [43]: 27.9 µM
- TGI [44]: 40.9 µM

SMILES: CN1C(=O)C2C(=O)N(Cc3ccccc3)CC(=O)N2c2cccnc21 (stereo not given)
- TGI [1]: > 100 µM
- TGI [2]: > 100 µM
- TGI [45]: > 100 µM
- TGI [3]: > 100 µM
- TGI [4]: > 100 µM
- TGI [46]: > 100 µM
- TGI [47]: > 100 µM
- TGI [5]: > 100 µM
- TGI [48]: > 100 µM
- TGI [6]: > 100 µM
- TGI [7]: > 100 µM
- TGI [49]: > 100 µM
- TGI [8]: > 100 µM
- TGI [9]: > 100 µM
- TGI [10]: > 100 µM
- TGI [50]: > 100 µM
- TGI [11]: > 100 µM
- TGI [12]: > 100 µM
- TGI [13]: > 100 µM
- TGI [15]: > 100 µM
- TGI [16]: > 100 µM
- TGI [17]: > 100 µM
- TGI [51]: > 100 µM
- TGI [18]: > 100 µM
- TGI [19]: > 100 µM
- TGI [20]: > 100 µM
- TGI [21]: > 100 µM
- TGI [52]: > 100 µM
- TGI [22]: > 100 µM
- TGI [24]: > 100 µM
- TGI [25]: > 100 µM
- TGI [26]: > 100 µM
- TGI [27]: > 100 µM
- TGI [53]: > 100 µM
- TGI [29]: > 100 µM
- TGI [30]: > 100 µM
- TGI [31]: > 100 µM
- TGI [32]: > 100 µM
- TGI [33]: > 100 µM
- TGI [34]: > 100 µM
- TGI [54]: > 100 µM
- TGI [55]: > 100 µM
- TGI [35]: > 100 µM
- TGI [56]: > 100 µM
- TGI [36]: > 100 µM
- TGI [37]: > 100 µM
- TGI [38]: > 100 µM
- TGI [39]: > 100 µM
- TGI [40]: > 100 µM
- TGI [41]: > 100 µM
- TGI [42]: > 100 µM
- TGI [57]: > 100 µM
- TGI [43]: > 100 µM
- TGI [44]: > 100 µM

SMILES: COc1ccc(N2C(=O)C3c4[nH]c5ccc(OCc6ccccc6)cc5c4C4CCC(C(C)(C)C)CC4C3C2=O)cc1 (stereo not given)
- TGI [1]: > 100 µM
- TGI [2]: > 100 µM
- TGI [45]: > 100 µM
- TGI [3]: > 100 µM
- TGI [46]: > 100 µM
- TGI [47]: > 100 µM
- TGI [5]: > 100 µM
- TGI [48]: > 100 µM
- TGI [6]: > 100 µM
- TGI [7]: > 100 µM
- TGI [49]: > 100 µM
- TGI [8]: > 100 µM
- TGI [9]: > 100 µM
- TGI [10]: > 100 µM
- TGI [58]: > 100 µM
- TGI [11]: > 100 µM
- TGI [12]: > 100 µM
- TGI [13]: > 100 µM
- TGI [14]: > 100 µM
- TGI [15]: > 100 µM
- TGI [16]: > 100 µM
- TGI [17]: > 100 µM
- TGI [51]: > 100 µM
- TGI [18]: > 100 µM
- TGI [19]: > 100 µM
- TGI [20]: > 100 µM
- TGI [21]: > 100 µM
- TGI [52]: > 100 µM
- TGI [23]: > 100 µM
- TGI [24]: > 100 µM
- TGI [25]: > 100 µM
- TGI [26]: > 100 µM
- TGI [27]: > 100 µM
- TGI [53]: > 100 µM
- TGI [28]: > 100 µM
- TGI [29]: > 100 µM
- TGI [30]: > 100 µM
- TGI [31]: 54.1 µM
- TGI [59]: > 100 µM
- TGI [32]: > 100 µM
- TGI [33]: 55.5 µM
- TGI [34]: > 100 µM
- TGI [54]: > 100 µM
- TGI [55]: 59.4 µM
- TGI [35]: 60.4 µM
- TGI [56]: > 100 µM
- TGI [36]: > 100 µM
- TGI [37]: > 100 µM
- TGI [38]: 81.8 µM
- TGI [39]: > 100 µM
- TGI [40]: > 100 µM
- TGI [42]: > 100 µM
- TGI [57]: > 100 µM
- TGI [43]: > 100 µM
- TGI [44]: > 100 µM

SMILES: OCCCCCNc1c2ccccc2nc2ccccc12
- TGI [1]: 13.9 µM
- TGI [2]: 8.57 µM
- TGI [45]: 11.4 µM
- TGI [3]: 14.3 µM
- TGI [4]: 12.5 µM
- TGI [46]: 9.05 µM
- TGI [47]: 13.7 µM
- TGI [5]: 10.2 µM
- TGI [48]: 8.5 µM
- TGI [6]: 5.47 µM
- TGI [7]: 3.5 µM
- TGI [49]: > 28.8 µM
- TGI [8]: 25.3 µM
- TGI [9]: 4.77 µM
- TGI [10]: 10.8 µM
- TGI [58]: 25.3 µM
- TGI [50]: > 61.7 µM
- TGI [11]: 1.42 µM
- TGI [12]: 17.5 µM
- TGI [13]: 6.11 µM
- TGI [14]: 16.9 µM
- TGI [15]: 14.2 µM
- TGI [16]: 4.54 µM
- TGI [17]: 3.95 µM
- TGI [51]: 10.2 µM
- TGI [18]: > 29.7 µM
- TGI [19]: 3.92 µM
- TGI [20]: 6.91 µM
- TGI [21]: 8.72 µM
- TGI [52]: 12.7 µM
- TGI [22]: 10 µM
- TGI [23]: 15.9 µM
- TGI [24]: 7.42 µM
- TGI [25]: 21.1 µM
- TGI [26]: 33.2 µM
- TGI [27]: 6.68 µM
- TGI [53]: 10.5 µM
- TGI [28]: 3.36 µM
- TGI [29]: 10.7 µM
- TGI [30]: 7.2 µM
- TGI [31]: 4.15 µM
- TGI [59]: 9.34 µM
- TGI [33]: 8.38 µM
- TGI [34]: 10.9 µM
- TGI [54]: 4.7 µM
- TGI [55]: 11.4 µM
- TGI [35]: 20.8 µM
- TGI [56]: 8.31 µM
- TGI [36]: 7.43 µM
- TGI [37]: 20.3 µM
- TGI [38]: 12.9 µM
- TGI [39]: 12.2 µM
- TGI [40]: 20.7 µM
- TGI [42]: > 23.2 µM
- TGI [57]: > 57.2 µM
- TGI [43]: > 63.3 µM
- TGI [44]: > 39 µM
